Tests used:
[1] = test system: human sebocytes immortalized in culture, derived from the SZ95 line; test: Quantity of lipids produced by sebocytes (Nile Red fluorescence); type: cell-based; details: 100 μM, 2 days of treatment, total lipids, SZ95 sebocytes at confluence
Protocol: The test compounds were evaluated on a model of human sebocytes immortalized in culture, derived from the SZ95 line described in Zouboulis, C. C. et al., Establishment and Characterization of an Immortalized Human Sebaceous Gland Cell Line, J. Invest. Dermatol., 113, 1011-1020 (1999).
The test consists of measuring the quantity of lipids produced by the sebocytes of the cell line (at confluence), with or without active agents present, diluted in DMSO, in such a way that the final amount of DMSO in the basal medium is 0.1%. After 2 days of treatment, the adhering cells are treated with Nile Red (1 μg/ml). The lipids content is then quantified by measuring the fluorescence of the stain (two excitation/emission pairs: 485-540 nm for neutral lipids and 540-620 nm for non-neutral lipids). The results are given for total lipids (combining both measurements).
The test is carried out in decaplicate (assayed products and control) in a 96-well plate and renewed 3 times.

[2] = Stability in solution, hydrolysis of the esters by HPLC; type: physicochemical; details: hydrolysis of glucopyranose linoleate; 0.1 wt. % in ethanol/isopropanol/water (64/16/20 by volume), 45° C., 2 months
Protocol: The stability of the compounds according to the invention was evaluated (measurement of hydrolysis of the esters).
Solutions were prepared at 0.1 wt. % of the compounds in ethanol/isopropanol/water mixture (64/16/20 by volume). These solutions were left in a thermostat at 45° C., for 2 months.
Then the percentage hydrolysis of glucopyranose linoleate was determined by HPLC.

SZ 95 sebocytes = test: Cytotoxicity on sebocytes, production of LDH in the basal medium; type: cell-based; details: for Variation, LDH/control: 100 μM
Protocol: The tolerance of the glucose ester at 6 of linoleic acid was determined by measuring the cytotoxicity of the product on SZ 95 sebocytes, with linoleic acid alone as control.
The test conditions are identical to those examined in example 1. Cytotoxicity is measured by the production of LDH in the basal medium, according to the method described in Thomas J P et al.; Lethal damage to endothelial cells by oxidized low density lipoprotein: role of selenoperoxidases in cytoprotection against lipid hydroperoxide and iron mediated reactions. Journal of lipid research 34: 479-490. 1993.

[3] = Peroxidizability in the air, proportion of intact molecules by HPLC; type: physicochemical; details: storage for two months, at room temperature (about 20 to 25° C.), HPLC with UV detection (210 nm)
Protocol: The purpose of this study is to evaluate the peroxidizability of various molecules or mixtures of molecules by carrying out various tests. These tests consist of measuring the proportion of molecules still intact after storage for two months, in air, at room temperature (about 20 to 25° C.). The loss of the starting product is monitored by HPLC with UV detection (210 nm).

| SMILES | Variation, lipid/CONTROL [1] | % hydrolysis [2] | intact molecules [3] | further results |
| --- | --- | --- | --- | --- |
| CCCCCC=CCC=CCCCCCCCC(=O)NC1C(O)OC(CO)C(O)C1O (stereo not shown) | +40% |  |  |  |
| CCCCCC=CCC=CCCCCCCCC(=O)O[C@H]1[C@H](O)[C@@H](CO)OC(O)[C@@H]1O (stereo partly drawn) [3-O-octadeca-9,12-dienoyl-D-glucopyranose] |  | 30% |  |  |
| CCCCCC=CCC=CCCCCCCCC(=O)OC[C@H]1OC(O)[C@H](O)[C@@H](O)[C@@H]1O (stereo partly drawn) [6-O-octadeca-9,12-dienoyl-D-glucopyranose] |  | 7% | 30% | Variation, LDH/control (SZ 95 sebocytes; SZ 95 sebocytes, LDH in the basal medium): Not significant; cytotoxicity with respect to sebocytes (in words) (SZ 95 sebocytes; SZ 95 sebocytes): No cytotoxicity was found |
| C[C@]12CC[C@H](O)CC1=CC[C@@H]1[C@@H]2CC[C@]2(C)C(=O)CC[C@@H]12 [DHEA, dehydroepiandrosterone, reference compound] | +80% |  |  |  |
| CCCCCC=CCC=CCCCCCCCC(=O)O [Linoleic acid, octadeca-9,12-dienoic acid, reference compound] |  |  | no longer contain intact molecules | Variation, LDH/control (SZ 95 sebocytes; human): +20% |
| CCCCC/C=C\C/C=C\CCCCCCCC(=O)OC [methyl linoleate] |  |  | no longer contain intact molecules |  |
